Reference: patent publication US11168077B2, “Molecular rotor-based D-amino acids as tools for imaging peptidoglycan biosynthesis” (Indiana University Research and Technology Corporation, priority 2018, dated 2021)

How the values were obtained:
[1] = test system: bacterial PG; experiment: Wash-free labeling of bacterial PG with FMR-probe-D-Lys conjugates, fluorescence microscopy; type: cell-based
Text: FIG. 3E depicts exemplary labeling of bacterial PG with HADA probe (panel (i)) and FMR-probe-D-Lys conjugates having the FMR probe moiety of formula (I), wherein R^1 consists of a —CN moiety (denoted as “Rot1DL” (panel (ii))) without washing prior to fluorescence. Compared to conventional FDAAs (e.g., HADA), FMR-DAAs eliminate the need to wash excess probe.
The presence of the carboxylic acid provides a site for covalent coupling of the FMR-probe to an available amino group on a D-amino acid backbone, such as D-amino-Ala or D-Lys. As FMR-probes having R^1 consist of a cyano moiety provide slight affinity for bacterial membranes, result in low levels of nonspecific labeling and some instability of the α,β-unsaturated malononitrile moiety under typical experimental conditions, such FMR-probes are less preferred for use. In such cases, FMR-probes having R^1 consisting of a carboxylic acid can prevent non-specific membrane binding and increase stability of the probe.

[2] = UV-Vis spectra and calibration curve of FMR-DAAs (excitation/emission maxima, absorptivity); type: physicochemical; parameters: Absorptivity (ε): unit not given here; conditions: for Max. λEm / Max. λEx: PBS (pH 7.4) containing 50% glycerol, scan range 350 to 800 nm; for Absorptivity (ε): PBS (pH 7.4), Beer's Law
Description: The excitation and emission wavelengths of FMR-DAAs were measured by SpectraMax M2 plate reader using disposable cuvette (polymethyl methacrylate). UV-Vis spectra of FMR-DAAs were measured by scanning within a range from 350 to 800 nm with an increment of 1 nm. The wavelength at maximum absorbance (Ex) and emission (Em) of FMR-DAAs were recorded.
For plotting calibration curves, FMR-DAAs (100 mM stock solution, DMSO) were diluted into 1×PBS (pH 7.4) and the corresponding A. absorbance of FMR-DAAs was measured as a function of concentration (0.1, 0.05, 0.025 and 0.0125 mM). The absorptivity was calculated as described by Beer's Law. The spectra of molecular rotor designs are illustrated in FIG. 7 (panels (i)-(vi)).

[3] = Measurement of viscosity sensitivity of FMR-DAAs in PBS-glycerol; type: physicochemical; conditions: free probe 0.1 mM in 1×PBS containing 0-80% glycerol, pH 7.4
Description: For free FMR-DAAs measurement, FMR-DAAs (100 mM stock solution, DMSO) was diluted in PBS-glycerol solution (1×PBS containing 0%, 20%, 40%, 50%, 60% and 80% glycerol, pH 7.4) to a final concentration of 0.1 mM. The solutions were transferred into 96-well micro-plate and the fluorescence was measure at corresponding Em wavelength mentioned above using SpectraMax M2 plate reader (corresponding Ex wavelength was used). The viscosity sensitivity was calculated using the following equation, where r is viscosity of the solvents, I is the emission intensity of the FMR-DAAs, C is a constant depending on the temperature, and x is the viscosity sensitivity (Zhou el, EJOC, 2011, 4773). The Ig, 50%/Iw value represents the ratio of fluorescent intensity of the 50% glycerol sample to that of the 0% glycerol sample.

[4] = Quantum yield measurement (fluorescein standard); type: physicochemical; conditions: PBS (pH 7.4) containing 50% glycerol; fluorescein as standard
[5] = Measurement of thermal stability of FMR-DAAs; type: physicochemical; conditions: PBS (pH 7.4), 24-hours incubation at 60° C.
Description: FMR-DAAs (100 mM stock solution, DMSO) was diluted with 1×PBS (pH7.4) to a final concentration of 0.05 mM. The FMR-DAAs solution was then incubated at 60° C. and kept from light exposure. […]

[6] = biological target: T1, S. aureus PBP4 (Staphylococcus aureus, UniProt P72355); experiment: In vitro real-time D,D-transpeptidation assay using Rf470 and diacetyl-L-lysine-D-alanine-D-alanine substrate; type: biochemical; conditions: for Effect on initial rate of fluorescence increase (PBP4 enzyme reaction): antibiotics 0.1 equiv. to the substrate; for Effect of added antibiotic on D,D-transpeptidation activity (fluorescence signal increase): antibiotic added to Rf470/substrate/PBP4 reaction
T1 sequence (P72355 25-431): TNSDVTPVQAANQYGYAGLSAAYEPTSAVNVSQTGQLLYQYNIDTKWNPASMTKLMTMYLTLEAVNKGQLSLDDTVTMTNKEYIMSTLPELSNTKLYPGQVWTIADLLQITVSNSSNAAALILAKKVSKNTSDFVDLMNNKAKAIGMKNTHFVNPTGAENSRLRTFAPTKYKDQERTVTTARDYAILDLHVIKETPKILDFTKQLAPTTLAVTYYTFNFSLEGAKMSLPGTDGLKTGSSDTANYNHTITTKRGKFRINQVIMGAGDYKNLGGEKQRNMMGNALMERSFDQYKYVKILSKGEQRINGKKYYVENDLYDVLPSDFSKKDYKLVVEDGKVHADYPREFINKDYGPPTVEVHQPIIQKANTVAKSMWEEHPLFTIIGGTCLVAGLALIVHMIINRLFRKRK
Text: FIG. 12A depicts an exemplary scheme for the assay procedure for in vitro D,D-transpeptidation assays using Rf470 and isolated S. aureus PBP4.
FIG. 12E depicts screening of antibiotic effect on S. aureus PBP4 activity. Kanamycin and Chloramphenicol: ribosome activity inhibitors; Piperacillin, Ampicillin, Penicillin G, Carbenicillin and Cefoxitin are β-lactam antibiotics. A 1:10 ratio of antibiotics to the substrate was used.
We took advantage of the fact that FMR-DAAs are fluorogenic probes that fluoresce upon PG incorporation to develop a continuous, spectrophotometric assay to monitor the formation of transpeptidation product without the need of quenching and purification. The components of the assay included FMR-DAA probes as the fluorescence reporter, synthetic diacetyl-L-lysine-D-alanine-D-alanine as the substrate (acyl donor) and Staphylococcus aureus PBP4 enzyme. S. aureus PBP4 is known to have D,D-transpeptidation activity responsible for the highly cross-linked PG layer in staphylococci, as well as β-lactamase activity to degrade penicillin-like antibiotics.
Rf470, the synthetic substrate and S. aureus PBP4 were incubated in a 96-well plate and the emission fluorescence was measured overtime using a plate reader (5-minute interval, 1 hour in total, FIG. 12A). […] The formation of cross-linked product was confirmed by reverse-phase HPLC and high-resolution mass spectrometry (FIG. 12C, D).
(§1) We further evaluated the utility of this assay for in vitro high-throughput screening for antibiotics. We tested various antibiotics (0.1 equiv. to the substrate) and measured the initial rate of fluorescence increase (FIG. 12E). […] To further confirm the inhibitory effect of these β-lactams toward S. aureus PBP4, we performed a Nitrocefin assay, which tests PBP's β-lactamase activity, in the presence of the antibiotics. […] We also note that this assay can be conducted in an end-point manner, providing an efficient way to test a large number of samples since only a single measurement is required per sample. End-point assays potentially enable high-throughput applications for drug screening and transpeptidation reaction studies.

[7] = test system: LdtA, encoded by V. cholerae vc1268; experiment: In vitro FMR-DAA assay with L,D-transpeptidase and synthetic tetrapeptide (diacyl-L-Ala-D-Glu-L-Lys-D-Ala); type: biochemical; conditions: Rf470 + LdtA + synthetic tetrapeptide
Text: (§2) In addition to PBPs, we tested the in vitro assay in other classes of transpeptidases: L,D-transpeptidase (Ldts) and Sortases. It is known that LdtA, encoded by V. cholerae vc1268, is responsible for 3′-3′ cross-linkage formation. […] On the other hand, S. aureus Sortase A (SrtA) is responsible for anchoring surface proteins to PG through a sequence-specific transpeptidation reaction. It recognizes a conserved protein LPXTG motif, and cross-links it with PG pentaglycine in S. aureus. […] Control experiments in the absence of the substrate led to no signal change.

[8] = biological target: S. aureus Sortase A (SrtA) (Staphylococcus aureus, UniProt Q2FV99); experiment: In vitro FMR-DAA assay with Sortase A and synthetic pentapeptide motif (LPETG); type: biochemical
S. aureus Sortase A (SrtA), sequence (Q2FV99 whole entry): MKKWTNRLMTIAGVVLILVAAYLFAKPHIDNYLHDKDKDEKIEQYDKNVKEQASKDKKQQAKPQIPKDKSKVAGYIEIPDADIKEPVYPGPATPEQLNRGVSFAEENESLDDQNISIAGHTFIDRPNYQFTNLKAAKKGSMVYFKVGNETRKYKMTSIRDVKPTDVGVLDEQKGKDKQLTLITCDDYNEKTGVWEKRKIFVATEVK
Text: as §2

[9] = biological target: T1, S. aureus PBP4; experiment: Nitrocefin assay of PBP4 β-lactamase activity in the presence of antibiotics; type: biochemical; conditions: in the presence of the antibiotic
Text: FIG. 12F depicts β-lactamase activity of S. aureus PBP4 in the presence of antibiotics. Nitrocefin degradation by PBP4 results in an increase of absorbance at 500 nm, which is used to measure β-lactamase activity. Low activity stands for a strong inhibition effect of the antibiotics toward PBP4, and vice versa. Values are normalized to the “no antibiotic” sample.
as §1

SMILES	Max. λEm [2]	Max. λEx [2]	Absorptivity (ε) [2]	Viscosity sensitivity (χ) [3]	Thermo-stability (signal retention of absorbance vs initial value) [5] [%]	Effect on initial rate of fluorescence increase (PBP4 enzyme reaction) [6]	further results
N#CC(C#N)=Cc1ccc2c(c1)CCCN2CCC(=O)NCCCC[C@@H](N)C(=O)O [Rotor No. 1, N6-(3-(6-(2,2-dicyanovinyl)-3,4-dihydroquinolin-1(2H)-yl)propanoyl)-D-lysine]	–	–	–	–	–	–	Non-specific affinity to other cellular structures / membranes ([1]; FIG. 3G, no washing): low non-specific affinity to other cellular structures; Incorporation into PG sacculi ([1]; labeled bacterial PG, FIG. 3F): covalently incorporated into PG sacculi
N#C/C(=C\c1ccc2c(c1)CCCN2CCC(=O)NCCCC[C@@H](N)C(=O)O)C(=O)O [Rf420, (E)-N6-(3-(6-(2-carboxy-2-cyanovinyl)-3,4-dihydroquinolin-1(2H)-yl)propanoyl)-D-lysine]	490	420	19761	0.683 ± 0.013	99.8 ± 1.2	–	Quantum Yield (ϕ) [4]: 0.012
CC1(C)S[C@@H]2[C@H](NC(=O)C(C(=O)O)c3ccccc3)C(=O)N2[C@H]1C(=O)O (some centres unmarked) [Carbenicillin]	–	–	–	–	–	inhibited the enzyme reaction almost completely	–
CC1(C)S[C@@H]2[C@H](NC(=O)Cc3ccccc3)C(=O)N2[C@H]1C(=O)O [Penicillin G]	–	–	–	–	–	partial inhibition	–
NC(CNC(=O)c1cc2ccc(O)cc2oc1=O)C(=O)O (centres unmarked) [HADA, reference compound]	450	400	109538	0.025 ± 0.003	80.0 ± 1.1	–	–
N#C/C(=C\c1ccc(-c2ccc3c(c2)CCCN3CCC(=O)NCCCC[C@@H](N)C(=O)O)s1)C(=O)O [Rf470, (E)-N6-(3-(6-(5-(2-carboxy-2-cyanovinyl)thiophen-2-yl)-3,4-dihydroquinolin-1(2H)-yl)propanoyl)-D-lysine]	640	470	33106	0.642 ± 0.022	99.4 ± 1.4	–	Quantum Yield (ϕ) [4]: 0.042; Probe fluorescence intensity over time (D,D-transpeptidation signal) ([6]; probe + synthetic substrate + S. aureus PBP4, 96-well plate, 5-minute interval, 1 hour): increase in fluorescence intensity overtime; Fluorescence signal over time with LdtA [7]: time-lapse increase of fluorescence signal; Rf470 signal over time with Sortase A [8]: increase of Rf470 signal over time
CO[C@@]1(NC(=O)Cc2cccs2)C(=O)N2C(C(=O)O)=C(COC(N)=O)CS[C@@H]21 [Cefoxitin]	–	–	–	–	–	inhibited the enzyme reaction almost completely	Effect of added antibiotic on D,D-transpeptidation activity (fluorescence signal increase) [6]: total inhibition
CCN1CCN(C(=O)N[C@@H](C(=O)N[C@@H]2C(=O)N3[C@@H]2SC(C)(C)[C@@H]3C(=O)O)c2ccccc2)C(=O)C1=O [Piperacillin]	–	–	–	–	–	did not have a significant effect	Inhibition of PBP4 β-lactamase activity (in words) [9]: did not inhibit PBP4s β-lactamase activity effectively
O=C(N[C@H](CO)[C@H](O)c1ccc([N+](=O)[O-])cc1)C(Cl)Cl [Chloramphenicol]	–	–	–	–	–	–	Effect of added antibiotic on D,D-transpeptidation activity (fluorescence signal increase) [6]: comparable to the non-treated sample
N#CC(=Cc1ccc(-c2ccc3c(c2)CCCN3CCC(=O)O)s1)C(=O)NCCCCC(N)C(=O)O (stereo in doubt) [Rf490, (E)-N^6-(3-(5-(1-(2-carboxyethyl)-1,2,3,4-tetrahydroquinolin-6-yl)thiophen-2-yl)-2-cyanoacryloyl)-L-lysine]	660	490	25409	0.67 ± 0.003	96.9 ± 9.8	–	Red-shift in Max. λEX compared to Rf470 [2]: 20 nm; Quantum Yield (ϕ) [4]: 0.035
CC1(C)S[C@@H]2[C@H](NC(=O)[C@H](N)c3ccccc3)C(=O)N2[C@H]1C(=O)O [Ampicillin]	–	–	–	–	–	partial inhibition	Inhibition of PBP4 β-lactamase activity (in words) [9]: did not inhibit PBP4s β-lactamase activity effectively
